Reference: patent US20040101828A1, “Method for analysis of the phenoptypic characteristics of the human immunodeficiency virus (HIV)” (priority 2000, published 2004)

Experiments:
[1] = system: HIV virus (recombinant virus carrying reverse transcriptase from patient plasma); experiment: Recombinant virus assay (RVA): susceptibility to reverse transcriptase inhibitors, recombinant viruses from patient samples; format: cell-based, HIV-1; conditions: for median Resistance Index (RI) relative to NL43: 22 tested viruses from patients with ordinary treatment, 3 RVA replicates; for resistance levels (in words): sample R5
Experimental: (§1) The determination of the susceptibility of an HIV virus to a reverse transcriptase inhibitor is carried out in the following manner: 293 T cells are transfected with 7.5 μg of pSRT plasmid that is linearized by NruI, 0.1 μg of pVSV-G plasmid and 0.5 and 1 μg of the product that is obtained from the PCR reaction of the reverse transcription of HIV. The transfection precipitate is withdrawn from cells after 18 hours of incubation, and fresh growth medium is added. After 24 hours of cultivation, the supernatant is clarified by centrifuging (500 g, 15 minutes) and transferred to P4 indicating cells that were pre-incubated with serial dilutions of a reverse transcriptase inhibitor, in triplicate wells, for four hours. The range of inhibitor concentrations used varies according to the compounds. The signal that is produced by the activation of the marker gene was developed with CPRG for 48 hours as for the analysis of the susceptibility to a reverse transcriptase inhibitor, and index IC50 was calculated by using the median effect equation.
To determine if NL43 is a reference virus that is suitable for comparison with clinical isolates, a group of samples taken from patients with ordinary treatment was tested on 3 RVA replicates for their susceptibility to reverse transcriptase inhibitors.
The reproducibility of the method for determining the susceptibility of the recombinant virus (RVA) to reverse transcriptase inhibitors (RTI) was evaluated by a series of test on 5 samples, selected so as to represent a wide range of susceptibility profiles, between 4 and 8 tests per sample, by using RNA preparations and separate PCR reactions.

[2] = molecular target: Envelope protein (gp41) of the NL4.3 reference virus (HIV-1); experiment: cell-based or functional assay
[3] = molecular target: Envelope protein (gp41) of the strongly resistant NL-DIM virus (HIV-1); experiment: cell-based or functional assay
Reference Virus NL4-3 = experiment: Recombinant virus assay (RVA): susceptibility to reverse transcriptase inhibitors, reference virus; format: cell-based, HIV-1
Experimental: as §1
The pSRT plasmid that brings a deletion in the region that codes for pol extending from codon 24 of reverse transcriptase (base 2618) to codon 432 of reverse transcriptase (base 3872) includes all of the mutations combined with a resistance phenomenon that are known to date. […]

P4 cells = format: cell-based
Source text: The inhibitor concentration ranges that are used are selected based on the cellular toxicity of each compound and the IC50/IC90, ratio for the susceptibility of the resistant isolates (Table 1). […] A range of four serial dilutions, beginning at […], was used for the abacavir, making it possible to detect up to 60× more resistance.

[4] = system: HIV viruses (NL-DIM, NL4.3, LAI-L91H); experiment: Validation of fusion inhibitor susceptibility method: resistant recombinant viruses versus reference viruses T5A1 and LAI; format: cell-based, HIV-1
Experimental: The recombinations that are obtained by using for the amplification of stage (b) the pair of primers FuA: 5′ […]3′ (SEQ ID No: 23) and FuB: 5′ […]3′ (SEQ ID No: 24) followed by a second amplification, carried out with the primer: FuC: 5′ […]3′ (SEQ ID No: 25) and a mixture of the following primers: FuD1: 5′ […]3′ (SEQ ID No: 26) and FuD2: 5′ […]3′ (SEQ ID No: 27) are very effective.
Actually, to obtain a satisfactory viral production, 10-50 ng of PCR product, used in the recombination stage, is generally adequate. In this method that is intended to analyze the phenotypic fusion characteristic, a viral production corresponding to 50-400 ng/ml of p24 is obtained after transfection. For the infection of target cells, between 0.5 and 5 ng of p24/well (96-well plates) is used. The increase of the optical density that is obtained after infection of target cells is linear if the infection is conducted under these conditions.
To validate the analytical method that relates to the susceptibility of HIV viruses to fusion inhibitors, two fusion inhibitors have been used: a peptide derived from the distal helix sequence in the gp41 of HIV (called DP178 or T20) and a derivative of betulinic acid (RPR103611). For each inhibitor, the reduction of sensitivity of one or more resistant viruses (previously identified by other authors) relative to two reference viruses: a primary plasmatic virus T5A1 and a virus adapted to in-vitro cultivation (LAI) was carried out. All the viruses were produced by recombination.
The increases of IC50 for a strongly resistant NL-DIM virus (described by Rimsky, L. T. et al. J. Virol. 1998, Vol. 72, pages 896-993) and for the NL4.3 virus (which is partially resistant) were measured regarding this inhibitor.
The increase of IC50 of the LA1-L91H resistant virus (Labrosse, B. et al. J. Virol. 2000 Vol 74, pages 2142-2150) regarding this inhibitor has been measured.

[5] = sample R1 (69N/T, 70R), 6 tests
[6] = sample R2 (41L, 62V, 67N, 69N, 75I, 77L, 115F, 116Y, 151M, 181C, 184V, 190A, 208Y, 215F, 219Q), 6 tests
[7] = sample R3 (184V, 215F), 6 tests
[8] = sample R4 (41L, 67N, 69D, 184V, 190A, H208Y, 210W, 215Y), 5 tests
[9] = sample R5 (215Y, 41L, 74V, 100I, 103N), 5 tests

| Compound | Resistance Index, geometric mean (IC50 in the sample relative to NL43) [1, 5] | Resistance Index, geometric mean (IC50 in the sample relative to NL43) [1, 6] | Resistance Index, geometric mean (IC50 in the sample relative to NL43) [1, 7] | Resistance Index, geometric mean (IC50 in the sample relative to NL43) [1, 8] | Resistance Index, geometric mean (IC50 in the sample relative to NL43) [1, 9] | also measured |
| --- | --- | --- | --- | --- | --- | --- |
| Cc1cn([C@H]2C=C[C@@H](CO)O2)c(=O)[nH]c1=O [D4T, stavudine] |  |  |  |  |  | median Resistance Index (RI) relative to NL43 [1]: around 0.92 |
| T20 fusion inhibitor, a peptide derived from the distal helix sequence in the gp41 of HIV (from UniProt P03377 643-678) |  |  |  |  |  | increase of IC50 relative to LAI [2]: 12.5 fold; increase of IC50 relative to T5A1 (printed 15A1) [2]: 10 fold; increase of the value of IC50 relative to LAI [3]: > 100 fold; increase of the value of IC50 relative to T5A1 [3]: 80 fold |
| Nc1nc(NC2CC2)c2ncn([C@H]3C=C[C@@H](CO)C3)c2n1 [Abacavir] | 1.1 | > | 4.3 | 6.1 | 1.7 | IC50 index for the native stock of the virus (Reference Virus NL4-3): about 3 μM; index IC50 for the P4 cells (cellular toxicity) (P4 cells): about 250 μM |
| O=C1Nc2ccc(Cl)cc2[C@@](C#CC2CC2)(C(F)(F)F)O1 [Efavirenz] | 1.0 | 74.9 | 1.0 | 149.8 | > | resistance levels (in words) [1]: high resistance levels |
| Cc1ccnc2c1NC(=O)c1cccnc1N2C1CC1 [Nevirapine] |  |  |  |  |  | resistance index ([1]; one virus carrying a mutation on codon 98 (A for S) of reverse transcriptase): 11.0; resistance levels (in words) [1]: high resistance levels |
| Nc1ccn([C@@H]2CS[C@H](CO)O2)c(=O)n1 [3TC, lamivudine] | 1.3 | >f | > | > | 1.8 | median Resistance Index (RI) relative to NL43 [1]: ~1.22; resistance level (in words) ([1]; sample R3): high resistance level |
| enfuvirtide |  |  |  |  |  | increase of IC50 ([4]; partially resistant NL4.3 virus relative to 15A1): 10 ×; increase of IC50 ([4]; partially resistant NL4.3 virus relative to LAI): 12.5 ×; increase of the value of IC50 ([4]; strongly resistant DIM virus relative to LAI): more than 100 ×; increase of the value of IC50 ([4]; strongly resistant DIM virus relative to T5A1): 80 × |
| O=c1[nH]cnc2c1ncn2[C@H]1CC[C@@H](CO)O1 [DDI] | 1.4 | 26.9 | 3.1 | 3.0 | 2.6 |  |
| C=C(C)[C@@H]1CC[C@]2(C(=O)NCCCCCCCC(=O)N[C@@H](CC(C)C)[C@@H](O)CC(=O)O)CC[C@]3(C)[C@H](CC[C@@H]4[C@@]5(C)CC[C@H](O)C(C)(C)[C@@H]5CC[C@]43C)[C@@H]12 [RPR103611] |  |  |  |  |  | increase of IC50 ([4]; LAT-L91H resistant virus relative to LAI and to T5A1): greater than 100 × |
| Cc1cn([C@H]2C[C@H](N=[N+]=[N-])[C@@H](CO)O2)c(=O)[nH]c1=O [AZT, ziodvudine] |  |  |  |  |  | toxicity for the P4 cells (P4 cells): > 300 μm |
